From patent US20260263485A1, “AMINOSTEROL COMPOUNDS, AMINOSTEROL-CYCLODEXTRIN FORMULATIONS, AND METHODS OF USING THE SAME” (Enterin, Inc., priority 2022, published 2026)

Tests used:
[1] = Plasma pharmacokinetics of ENT-03S cyclodextrin formulation after subcutaneous injection; type: in vivo, rat; conditions: Sprague-Dawley, rat; 20% beta-cyclodextrin formulation; SC Dose 10 mg/kg; male SD rats; plasma; mean; read-out: Tmax Mean
Protocol: In this example, ENT-03S was formulated with unmodified beta-cyclodextrin at a concentration of 25 mg/ml ENT-03, and 20% beta-cyclodextrin, pH 7.5, buffered with phosphate.
Male Sprague-Dawley rats were administered the ENT-03-cyclodextrin formulation subcutaneous at a dose of 10 mg/kg. Blood samples were drawn from the tail vein at various times, the concentrations of ENT-03 determined, and PK parameters determined.

[2] = test system: PTP1B; conditions: in vitro, bank of commercially available phosphatases; cited from earlier work
[3] = cited from earlier work
[4] = Identification of metabolites of ENT-03S in rat plasma and urine samples (UPLC-MS/MS); type: in vivo
Protocol: An equal number of rat urine (50 μL) were taken from different animals at various time points following administration of ENT-03S. For plasma samples, the Hamilton pooling method was used.
Study design: An equal number of rat urine (50 μL) samples were taken from different animals at various time points from study No.: PH-DMPK-ETR-21-001 following administration of ENT-03S. For plasma samples, the Hamilton pooling method was used.
The samples were then analysed using UPLC-MS/MS.
Compound dependent parameters were optimized by ENT-03S.

[5] = Identification of metabolites of ENT-03S in rat bile samples (UPLC-MS/MS); conditions: bile duct cannulated male SD rats, 10 mg/kg ENT-03S SC; for Metabolite peak area percentages Rat Bile: pooled bile 0-24 h, relative XIC peak area; for Metabolite peak area Rat Bile: pooled bile, XIC peak area
Protocol: An equal volume of rat bile samples (50 μL) were taken from different animals at different time points following administration of ENT-03S. 50 μL of matrix was mixed with 200 μL of methanol (containing 0.1% formic acid), vortexed for 100 seconds and then centrifuged at 16,000 g for 10 minutes at 4° C. to precipitate proteins. 100 μL of the supernatant was transferred to a new tube and the supernatant diluted with 100 μt, pure water, mixed well and analyzed using UPLC-MS/MS.
The peak area percentages of parent drug and each metabolite were determined by semi-quantitative estimation using the extracted ion chromatogram peak areas of all detected drug-related material in the sample. Metabolites with percentage of peak area>10% are proposed as major metabolites of ENT-03S.
Bile samples were obtained from male rats at various time points following a 10 mg/kg dose of ENT-03S via subcutaneous administration in bile dicut cannulated male SD rats as detailed in Table 10. The samples were transferred on dry ice and stored at −80° C. prior to use
Study design: An equal volume of rat bile samples (50 μL) were taken from different animals at different time points following administration of ENT-03S in study No.: PII-DMPK-ETR-21-001. 50 μL of matrix was mixed with 200 μL of methanol (containing 0.1% formic acid), vortexed for 100 seconds and then centrifuged at 16,000 g for 10 minutes at 4° C. to precipitate proteins. 100 μL of the supernatant was transferred to a new tube and the supernatant diluted with 100 μL pure water, mixed well and analyzed using UPLC-MS/MS.
Sample preparation: For bile samples, an equal volume of samples (50 μL) are taken from different animals at various time points after the administration of each group of samples, and the same group of samples are mixed thoroughly.
Data Analysis: UPLC-MS/MS was used for sample analysis, and was conducted using a DionexUltiMate 3000/Vanquish UHPLC system. For mass spectrometry (MS), all analysis was carried out with a Q-Exactive instrument (Thermo Fisher). A full MS scan was used to trigger the data dependent acquisition (DDA) of MS/MS scan spectra. Compound dependent parameters were optimized by ENT-03S. DDA settings were used to trigger acquisition of MS^2 spectra for ions whose intensity is in top 5 of all, with exclusion of impurity ions (m/z 149.02332, m/z 279.15909, m/z 391.28429 and m/z 445.12003), after 3 occurrences for 10 s. Dynamic exclusion settings: automatic exclusion of the ions which have been taken.
Data Analysis: The analysis was carried out using a thermo Fisher Scientific Q Exactive instrument. Full MS scan was used to trigger the data dependent acquisition (DDA) of MS/MS scan spectra. Compound dependent parameters were optimized by ENT-03S. DDA settings were used to trigger acquisition of MS^2 spectra for ions whose intensity was in the top 5 of all, with exclusion of ions (m/z 149.02332, m/z 279 1 5909, m/z 391.28429 and m/z 445 12003), after 3 occurrences for 10 s. Data was acquired and processed using Xcalibur v4.1 software (Thermo Fisher Scientific) and Compound Discoverer 3.1 (Thermo Fisher Scientific) and Excel (Microsoft 2016).

## CC(CCC[C@@H](C)[C@H]1CCC2C3C(CC[C@@]21C)[C@@]1(C)CC[C@H](NCCCNCCCCNCCCN)C[C@@H]1C[C@H]3O)C(=O)O (single isomer, unassigned) [ENT-03]
[1]
  Tmax: 2 h
[2]
  inhibition of PTP1B relative to the other phosphatases assayed: most potently inhibited
[3]; in vivo
  hepatic steatosis: reduces hepatic steatosis
  insulin sensitivity: acutely increases insulin sensitivity
[3]; peripheral and central administration to lean rodents
  food intake and body weight: prolonged reduction in food intake and body weight

## C[C@H](CCC(=O)O)[C@H]1CCC2C3C(CC[C@@]21C)[C@@]1(C)CC[C@H](NCCCNCCCCNCCCN)C[C@@H]1C[C@H]3O (single isomer, unassigned) [ENT-17]
[4]; pooled male SD rat plasma 0.25-24 h after 10 mg/kg ENT-03S SC, relative XIC peak area
  Metabolite peak area percentages Rat Plasma Male: 0.55%
[4]; pooled male SD rat plasma after 10 mg/kg ENT-03S SC, XIC peak area
  Metabolite peak area Rat Plasma Male: 3.62E+06
[4]; pooled male SD rat urine 0-24 h after 10 mg/kg ENT-03S SC, relative XIC peak area, “—”: not observed
  Metabolite peak area percentages Rat Urine Male: 7.56%
[4]; pooled male SD rat urine after 10 mg/kg ENT-03S SC, XIC peak area, “—”: not observed
  Metabolite peak area Rat Urine Male: 1.70E+05

## C[C@H](CCC[C@H](C)C(=O)O)[C@H]1CCC2C3C(CC[C@@]21C)[C@@]1(C)CC[C@H](NCCCNCCCCNCCC(=O)O)C[C@@H]1C[C@H]3O (stereo partly drawn) [ENT-25S]
[5]
  Metabolite peak area percentages Rat Bile: 9.52%
  Metabolite peak area Rat Bile: 1.17E+07

## C[C@H](CCC(=O)NCCS(=O)(=O)O)[C@H]1CCC2C3C(CC[C@@]21C)[C@@]1(C)CC[C@H](NCCC(=O)O)C[C@@H]1C[C@H]3O (some centres unmarked) [M3-RB]
[5]
  Metabolite peak area percentages Rat Bile: 2.27%
  Metabolite peak area Rat Bile: 2.80E+06

## C[C@H](CCC[C@H](C)C(=O)O)[C@H]1CCC2C3C(CC[C@@]21C)[C@@]1(C)CC[C@H](NCCCNCCCC(=O)O)C[C@@H]1C[C@H]3O (some centres unmarked) [M10-PU/M14-RB]
[5]
  Metabolite peak area percentages Rat Bile: 3.23%
  Metabolite peak area Rat Bile: 3.98E+06

## C[C@H](C[C@H](C)C(=O)O)[C@H]1CCC2C3C(CC[C@@]21C)[C@@]1(C)CC[C@H](NCCC(=O)O)C[C@@H]1C[C@H]3O (some centres unmarked) [M16-RB]
[5]
  Metabolite peak area percentages Rat Bile: 0.69%
  Metabolite peak area Rat Bile: 8.45E+05
